Source: patent publication US11477982B2, “2-amino-5-oxyalkyl-pyrimidine derivatives and their use for controlling undesired plant growth” (Bayer CropScience Aktiengesellschaft, priority 2017, dated 2022)

How the values were obtained:
Assay type in all cases: in vivo
[1] = tested on: ALOMY: Alopecurus myosuroides; assay: Pre-emergence herbicidal effect; conditions: pre-emergence; dosage 320 g/ha
Outline: (§1)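 Visual damage rating after ~3 weeks in greenhouse, expressed as % activity relative to untreated pots, where 0% equals control and 100% means dead plants. Treatment was pre-emergence: WP or EC formulations applied to covering soil at 600 l/ha water with 0.5% additive.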

LOLRI: Lolium rigidum [2] = assay: Pre-emergence herbicidal effect; conditions: dosage 320 g/ha
Outline: as §1

HORMU: Hordeum murinum [3] = assay: Pre-emergence herbicidal effect; conditions: pre-emergence; dosage 320 g/ha
Outline: as §1

AVEFA: Avena fatua [4] = assay: Pre-emergence herbicidal effect
Outline: as §1

VIOTR: Viola tricolor [5] = assay: Pre-emergence herbicidal effect; conditions: dosage 320 g/ha
Outline: as §1

[6] = tested on: ECHCG: Echinochloa crus-galli; assay: Pre-emergence herbicidal effect; conditions: pre-emergence; dosage 320 g/ha
Outline: as §1

[7] = tested on: MATIN: Matricaria inodora; assay: Pre-emergence herbicidal effect; conditions: pre-emergence; dosage 320 g/ha
Outline: as §1

STEME: Stellaria media [8] = assay: Pre-emergence herbicidal effect; conditions: pre-emergence; dosage 320 g/ha
Outline: as §1

[9] = tested on: POLCO: Polygonum convolvulus; assay: Pre-emergence herbicidal effect; conditions: dosage 320 g/ha
Outline: as §1

[10] = tested on: ABUTH: Abutilon theophrasti; assay: Pre-emergence herbicidal effect
Outline: as §1

VERPE: Veronica persica [11] = assay: Pre-emergence herbicidal effect; conditions: dosage 320 g/ha
Outline: as §1

[12] = tested on: AMARE: Amaranthus retroflexus; assay: Pre-emergence herbicidal effect; conditions: pre-emergence; dosage 320 g/ha
Outline: as §1

SETVI: Setaria viridis [13] = assay: Pre-emergence herbicidal effect; conditions: pre-emergence; dosage 320 g/ha
Outline: as §1

PHBPU: Ipomoea purpurea [14] = assay: Pre-emergence herbicidal effect
Outline: as §1

[15] = tested on: ALOMY: Alopecurus myosuroides; assay: Post-emergence herbicidal effect
Outline: (§2)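 Visual % activity against untreated controls, where 100% means plants died and 0% means no difference, rated about 3 weeks after treatment. Plants were sprayed at the one-leaf stage with WP or EC formulations diluted in water plus 0.5% additive, at 600 l/ha.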

LOLRI: Lolium rigidum [16] = assay: Post-emergence herbicidal effect
Outline: as §2

HORMU: Hordeum murinum [17] = assay: Post-emergence herbicidal effect
Outline: as §2

VIOTR: Viola tricolor [18] = assay: Post-emergence herbicidal effect; conditions: dosage 320 g/ha
Outline: as §2

[19] = tested on: ECHCG: Echinochloa crus-galli; assay: Post-emergence herbicidal effect
Outline: as §2

[20] = tested on: MATIN: Matricaria inodora; assay: Post-emergence herbicidal effect; conditions: dosage 320 g/ha
Outline: as §2

STEME: Stellaria media [21] = assay: Post-emergence herbicidal effect; conditions: dosage 320 g/ha
Outline: as §2

[22] = tested on: POLCO: Polygonum convolvulus; assay: Post-emergence herbicidal effect
Outline: as §2

[23] = tested on: ABUTH: Abutilon theophrasti; assay: Post-emergence herbicidal effect
Outline: as §2

VERPE: Veronica persica [24] = assay: Post-emergence herbicidal effect; conditions: dosage 320 g/ha
Outline: as §2

[25] = tested on: AMARE: Amaranthus retroflexus; assay: Post-emergence herbicidal effect; conditions: dosage 320 g/ha
Outline: as §2

SETVI: Setaria viridis [26] = assay: Post-emergence herbicidal effect
Outline: as §2

PHBPU: Ipomoea purpurea [27] = assay: Post-emergence herbicidal effect
Outline: as §2

CYPES = assay: Pre-emergence herbicidal effect
Outline: as §1

AVEFA: Avena fatua [28] = assay: Post-emergence herbicidal effect; conditions: dosage 320 g/ha
Outline: as §2

Cc1ccc2c(c1)[C@H](Nc1ncc(C(C)O)c(C)n1)[C@@H](C)C2 (stereo partly drawn) [Example 1.7, 1-(2-{[(1R,2S)-2,6-Dimethyl-2,3-dihydro-1H-inden-1-yl]amino}-4-methylpyrimidin-5-yl)ethanol]
Herbicidal action against ALOMY [1]: 100%
Herbicidal action against LOLRI (LOLRI: Lolium rigidum [2]): 100%
Herbicidal action against HORMU (HORMU: Hordeum murinum [3]): 100%
Herbicidal action against AVEFA (AVEFA: Avena fatua [4]; dosage 80 g/ha): 70%
Herbicidal action against AVEFA (AVEFA: Avena fatua [4]; dosage 320 g/ha): 90%
Herbicidal action against VIOTR (VIOTR: Viola tricolor [5]): 100%
Herbicidal action against ECHCG [6]: 100%
Herbicidal action against MATIN [7]: 100%
Herbicidal action against STEME (STEME: Stellaria media [8]): 100%
Herbicidal action against POLCO [9]: 100%
Herbicidal action against ABUTH ([10]; dosage 80 g/ha): 90%
Herbicidal action against ABUTH ([10]; dosage 320 g/ha): 100%
Herbicidal action against VERPE (VERPE: Veronica persica [11]): 100%
Herbicidal action against AMARE [12]: 100%
Herbicidal action against SETVI (SETVI: Setaria viridis [13]): 100%
Herbicidal action against PHBPU (PHBPU: Ipomoea purpurea [14]; dosage 80 g/ha): 80%
Herbicidal action against PHBPU (PHBPU: Ipomoea purpurea [14]; dosage 320 g/ha): 80%
Herbicidal action against ALOMY ([15]; dosage 80 g/ha): 80%
Herbicidal action against ALOMY ([15]; dosage 320 g/ha): 100%
Herbicidal action against LOLRI (LOLRI: Lolium rigidum [16]; dosage 80 g/ha): 100%
Herbicidal action against LOLRI (LOLRI: Lolium rigidum [16]; dosage 320 g/ha): 100%
Herbicidal action against HORMU (HORMU: Hordeum murinum [17]; dosage 80 g/ha): 40%
Herbicidal action against HORMU (HORMU: Hordeum murinum [17]; dosage 320 g/ha): 100%
Herbicidal action against VIOTR (VIOTR: Viola tricolor [18]): 90%
Herbicidal action against ECHCG ([19]; dosage 80 g/ha): 20%
Herbicidal action against ECHCG ([19]; dosage 320 g/ha): 100%
Herbicidal action against MATIN [20]: 90%
Herbicidal action against STEME (STEME: Stellaria media [21]): 100%
Herbicidal action against POLCO ([22]; dosage 80 g/ha): 80%
Herbicidal action against POLCO ([22]; dosage 320 g/ha): 80%
Herbicidal action against ABUTH ([23]; dosage 80 g/ha): 60%
Herbicidal action against ABUTH ([23]; dosage 320 g/ha): 80%
Herbicidal action against VERPE (VERPE: Veronica persica [24]): 90%
Herbicidal action against AMARE [25]: 100%
Herbicidal action against SETVI (SETVI: Setaria viridis [26]; dosage 80 g/ha): 100%
Herbicidal action against SETVI (SETVI: Setaria viridis [26]; dosage 320 g/ha): 100%
Herbicidal action against PHBPU (PHBPU: Ipomoea purpurea [27]; dosage 80 g/ha): 60%
Herbicidal action against PHBPU (PHBPU: Ipomoea purpurea [27]; dosage 320 g/ha): 100%

CC(C)(O)c1cnc(N[C@@H]2CCCc3ccccc32)nc1 [Example 1.8, 2-{2-[(1R)-1,2,3,4-Tetrahydronaphthalen-1-ylamino]pyrimidin-5-yl}propan-2-ol]
Herbicidal action against ALOMY [1]: 100%
Herbicidal action against CYPES (CYPES; dosage 320 g/ha): 70%
Herbicidal action against LOLRI (LOLRI: Lolium rigidum [2]): 100%
Herbicidal action against HORMU (HORMU: Hordeum murinum [3]): 100%
Herbicidal action against AVEFA (AVEFA: Avena fatua [4]; dosage 320 g/ha): 100%
Herbicidal action against VIOTR (VIOTR: Viola tricolor [5]): 100%
Herbicidal action against ECHCG [6]: 100%
Herbicidal action against MATIN [7]: 100%
Herbicidal action against STEME (STEME: Stellaria media [8]): 100%
Herbicidal action against POLCO [9]: 100%
Herbicidal action against ABUTH ([10]; dosage 320 g/ha): 100%
Herbicidal action against VERPE (VERPE: Veronica persica [11]): 100%
Herbicidal action against AMARE [12]: 100%
Herbicidal action against SETVI (SETVI: Setaria viridis [13]): 100%
Herbicidal action against PHBPU (PHBPU: Ipomoea purpurea [14]; dosage 320 g/ha): 100%
Herbicidal action against ALOMY ([15]; dosage 320 g/ha): 70%
Herbicidal action against AVEFA (AVEFA: Avena fatua [28]): 100%
Herbicidal action against VIOTR (VIOTR: Viola tricolor [18]): 90%
Herbicidal action against ECHCG ([19]; dosage 320 g/ha): 100%
Herbicidal action against MATIN [20]: 100%
Herbicidal action against STEME (STEME: Stellaria media [21]): 100%
Herbicidal action against POLCO ([22]; dosage 320 g/ha): 90%
Herbicidal action against ABUTH ([23]; dosage 320 g/ha): 90%
Herbicidal action against VERPE (VERPE: Veronica persica [24]): 90%
Herbicidal action against AMARE [25]: 100%
Herbicidal action against SETVI (SETVI: Setaria viridis [26]; dosage 320 g/ha): 100%
Herbicidal action against PHBPU (PHBPU: Ipomoea purpurea [27]; dosage 320 g/ha): 80%

Cc1ccc2c(c1)[C@H](Nc1ncc(C(C)(C)O)c(N)n1)[C@@H](C)C2 [drawing 3, reference compound]
Herbicidal action against CYPES (CYPES; dosage 80 g/ha): 60%
Herbicidal action against CYPES (CYPES; dosage 320 g/ha): 70%
